In US20150148551A1, “GENISTEIN FOR REDUCING LEVELS OF STORAGE COMPOUNDS IN THE TREATMENT AND/OR PREVENTION OF LYSOSOMAL STORAGE DISEASES (LSDS)” (3G THERAPEUTICS, INC., priority 2012, published 2015):

Key:
ABCA9 = experiment: DNA microarray, ABCA9 expression in fibroblasts exposed to genistein; assay type: cell-based, human; conditions: for ABCA9 fold change Average: 48 h vs DMSO
Experimental: (§1) The experiments were conducted to characterise the transcriptomic profile of human fibroblast cells exposed to genistein, and in particular to determine the expression of genes encoding lysosomal enzymes involved in metabolism (i.e. synthesis and degradation) of organic substances. The absence or deficiency of these enzymes' activity is responsible for occurrence of various lysosomal storage diseases (LSD) (including MPS). The tested hypothesis assumed that genistein influences the expression of many genes, among which there are genes coding for enzymes required in metabolism of compounds, which are pathologically stored in LSD. The results provide important information regarding genistein action on the molecular level within the range of gene expression modulation by this substance. The experiment was conducted in biological quintuplicates. Human dermal fibroblasts (HDFa) were exposed in vitro for 1, 24 or 48 hours to: 30, 60 or 100 μM of genistein; 0.05% DMSO (K1); or were untreated (control cells) (K2), and total RNA was isolated and analysed.
(§2) Fibroblast cells were grown in Dulbecco (DMEM) medium supplemented with 10% fetal bovine serum (FBS) with the addition of 1% antibiotics and anti-fungal agents at 37° C. in humidified atmosphere of 5% CO2, until the required confluency was obtained.
(§3) To determine the effect of tested compound on the transcriptom of the fibroblast cells, the growth medium was replaced with fresh medium, either non-supplemented (0.05% DMSO), or containing genistein (30, 60 or 100 μM, in 0.05% DMSO). The exposure was done for 1, 24 or 48 hours.
(§4) Total RNA was isolated from fibroblasts using High Pure RNA Isolation Kit according to the protocol and then it was quantitatively evaluated using Quant-It™ RiboGreen® Assay Kit.
(§5) Biotinylated cRNA was prepared using Ambion Total PrepAmp Kit for Illumina arrays.
(§6) Standard hybridization and quantitative image analysis procedures—Illumina hybridization protocol and Illumina scanning protocol, were used.
(§7) Processing of the results was done during data definition, including: background correction (using background subtraction method), normalization (using quantile normalization algorithm with Illumina GenomeStudio software package: gene expression module version 1.9.0) and summarization (using method, which sums the values of signal intensities from a set of probes).

MAN2B1 = experiment: DNA microarray, MAN2B1 expression in fibroblasts exposed to genistein; assay type: cell-based, human; conditions: for MAN2B1 fold change Average: 48 h vs DMSO
Experimental: as §1, §2, §3, §4, §5, §6, §7

CD164 = experiment: DNA microarray, CD164 expression in fibroblasts exposed to genistein; assay type: cell-based, human; conditions: for CD164 fold change Average: 48 h vs DMSO
Experimental: as §1, §2, §3, §4, §5, §6, §7

HYAL3 = experiment: DNA microarray, HYAL3 expression in fibroblasts exposed to genistein; assay type: cell-based, human; conditions: for HYAL3 fold change Average: 48 h vs DMSO
Experimental: as §1, §2, §3, §4, §5, §6, §7

HS3ST3A1 = experiment: DNA microarray, HS3ST3A1 expression in fibroblasts exposed to genistein; assay type: cell-based, human
Experimental: as §1, §2, §3, §4, §5, §6, §7

ST3GAL6 = experiment: DNA microarray, ST3GAL6 expression in fibroblasts exposed to genistein; assay type: cell-based, human
Experimental: as §1, §2, §3, §4, §5, §6, §7

FUCA1 = experiment: DNA microarray, FUCA1 expression in fibroblasts exposed to genistein; assay type: cell-based, human; conditions: for FUCA1 fold change Average: 48 h vs DMSO
Experimental: as §1, §2, §3, §4, §5, §6, §7

[1] = system: Human dermal fibroblasts (HDFa); experiment: Transcriptomic profiling of fibroblasts with DNA microarrays, genes of synthesis and degradation; assay type: cell-based; conditions: cells cultured in the presence vs absence of genistein
Experimental: as §1, with “analysed. […]” for “analysed.”
Total RNA was isolated from fibroblasts using High Pure RNA Isolation Kit according to the protocol and then it was quantitatively evaluated using Quant-It™ RiboGreen® Assay Kit. […]
Standard hybridization and quantitative image analysis procedures—Illumina hybridization protocol and Illumina scanning protocol, were used. […]

## O=c1c(-c2ccc(O)cc2)coc2cc(O)cc(O)c12 [genistein, 4′,5,7-trihydroxy-3-phenylchromen-4-one]
ABCA9; 30 μM, 1 h vs 0.05% DMSO
  ABCA9 fold change Average 1h30/1hK1: 1.0096 fold change
ABCA9; 30 μM
  ABCA9 fold change Average: 1.3825 fold change
ABCA9; 60 μM, 1 h vs 0.05% DMSO
  ABCA9 fold change Average 1h60/1hK1: 1.129 fold change
ABCA9; 100 μM, 1 h vs 0.05% DMSO
  ABCA9 fold change Average 1h100/1hK1: 0.9831 fold change
ABCA9; 100 μM
  ABCA9 fold change Average: 1.635 fold change
MAN2B1; 30 μM, 1 h vs 0.05% DMSO
  MAN2B1 fold change Average 1h30/1hK1: 1.0342 fold change
MAN2B1; 30 μM
  MAN2B1 fold change Average: 1.036 fold change
MAN2B1; 60 μM, 1 h vs 0.05% DMSO
  MAN2B1 fold change Average 1h60/1hK1: 0.8507 fold change
MAN2B1; 60 μM
  MAN2B1 fold change Average: 1.586 fold change
MAN2B1; 100 μM, 1 h vs 0.05% DMSO
  MAN2B1 fold change Average 1h100/1hK1: 0.9864 fold change
MAN2B1; 100 μM
  MAN2B1 fold change Average: 1.924 fold change
CD164; 30 μM, 1 h vs 0.05% DMSO
  CD164 fold change Average 1h30/1hK1: 1.0714 fold change
CD164; 30 μM
  CD164 fold change Average: 0.9618 fold change
CD164; 60 μM, 1 h vs 0.05% DMSO
  CD164 fold change Average 1h60/1hK1: 1.49 fold change
CD164; 100 μM, 1 h vs 0.05% DMSO
  CD164 fold change Average 1h100/1hK1: 1.002 fold change
CD164; 100 μM
  CD164 fold change Average: 1.282 fold change
HYAL3; 30 μM, 1 h vs 0.05% DMSO
  HYAL3 fold change Average 1h30/1hK1: 1.1887 fold change
HYAL3; 30 μM
  HYAL3 fold change Average: 0.8605 fold change
HYAL3; 60 μM
  HYAL3 fold change Average: 0.9492 fold change
HYAL3; 100 μM, 1 h vs 0.05% DMSO
  HYAL3 fold change Average 1h100/1hK1: 1.141 fold change
HYAL3; 100 μM
  HYAL3 fold change Average: 1.001 fold change
HS3ST3A1; 30 μM, 1 h vs 0.05% DMSO
  HS3ST3A1 fold change Average 1h30/1hK1: 1.027 fold change
HS3ST3A1; 30 μM, 24 h vs 0.05% DMSO
  HS3ST3A1 fold change Average 24h30/24hK1: 0.835 fold change
HS3ST3A1; 30 μM, 48 h vs 0.05% DMSO
  HS3ST3A1 fold change Average 48h30/48hK1: 0.7933 fold change
HS3ST3A1; 60 μM, 1 h vs 0.05% DMSO
  HS3ST3A1 fold change Average 1h60/1hK1: 0.9002 fold change
HS3ST3A1; 60 μM, 24 h vs 0.05% DMSO
  HS3ST3A1 fold change Average 24h60/24hK1: 0.5744 fold change
HS3ST3A1; 60 μM, 48 h vs 0.05% DMSO
  HS3ST3A1 fold change Average 48h61/48hK1: 0.6043 fold change
HS3ST3A1; 100 μM, 1 h vs 0.05% DMSO
  HS3ST3A1 fold change Average 1h100/1hK1: 1.047 fold change
HS3ST3A1; 100 μM, 24 h vs 0.05% DMSO
  HS3ST3A1 fold change Average 24h100/24hK1: 0.5452 fold change
HS3ST3A1; 100 μM, 48 h vs 0.05% DMSO
  HS3ST3A1 fold change Average 48h100/48hK1: 0.569 fold change
ST3GAL6; 30 μM, 1 h vs 0.05% DMSO
  ST3GAL6 fold change Average 1h30/1hK1: 1.234 fold change
ST3GAL6; 30 μM, 24 h vs 0.05% DMSO
  ST3GAL6 fold change Average 24h30/24hK1: 0.9878 fold change
ST3GAL6; 30 μM, 48 h vs 0.05% DMSO
  ST3GAL6 fold change Average 48h30/48hK1: 1.015 fold change
ST3GAL6; 60 μM, 1 h vs 0.05% DMSO
  ST3GAL6 fold change Average 1h60/1hK1: 1.072 fold change
ST3GAL6; 100 μM, 1 h vs 0.05% DMSO
  ST3GAL6 fold change Average 1h100/1hK1: 1.064 fold change
ST3GAL6; 100 μM, 24 h vs 0.05% DMSO
  ST3GAL6 fold change Average 24h100/24hK1: 0.7371 fold change
ST3GAL6; 100 μM, 48 h vs 0.05% DMSO
  ST3GAL6 fold change Average 48h100/48hK1: 0.7409 fold change
FUCA1; 30 μM, 1 h vs 0.05% DMSO
  FUCA1 fold change Average 1h30/1hK1: 0.9984 fold change
FUCA1; 30 μM
  FUCA1 fold change Average: 1.3114 fold change
FUCA1; 60 μM, 1 h vs 0.05% DMSO
  FUCA1 fold change Average 1h60/1hK1: 1.022 fold change
FUCA1; 60 μM
  FUCA1 fold change Average: 1.558 fold change
FUCA1; 100 μM, 1 h vs 0.05% DMSO
  FUCA1 fold change Average 1h100/1hK1: 0.9945 fold change
FUCA1; 100 μM
  FUCA1 fold change Average: 1.634 fold change
[1]
  expression of genes of degradation: increased
  expression of genes of synthesis: reduced
